According to patent publication US20060142291A1, “Use of formaldehyde and formaldehyde-releasing compounds in a composition for controlling mycobacteria” (priority 2004, published 2006):

Columns and labels:
Assay in all cases: Activity of bactericidal solutions against mycobacteria (MIC, 7H9 liquid medium, turbidity and streaking on 7H10 agar)
Assay type in all cases: cell-based
M. chelonae ATCC 19236 = conditions: ATCC 19236, 37° C., 3 weeks incubation, % by weight
[1] = tested on: M. immunogenum ATCC 700505; conditions: 3 weeks incubation, % by weight; for Activity at MIC (%) M. immunogenum (28° C.): ATCC 700505, 28° C.; for Activity at MIC (%) M. immunogenum (37° C.): ATCC 700505, 37° C.
M. terrae ATCC 15755 = conditions: ATCC 15755, 37° C., 3 weeks incubation, % by weight
M. chelonae ATCC 35725 = conditions: for Activity at MIC (%) M. chelonae (28° C.): ATCC 35725, 28° C., 3 weeks incubation, % by weight

| SMILES | Activity at MIC (%) M. chelonae (37° C.) (M. chelonae ATCC 19236) [%] | Activity at MIC (%) M. immunogenum (28° C.) [1] | Activity at MIC (%) M. immunogenum (37° C.) [1] | Activity at MIC (%) M. terrae (37° C.) (M. terrae ATCC 15755) [%] | Activity at MIC (%) M. chelonae (28° C.) (M. chelonae ATCC 35725) [%] | usage concentration active against M. chelonae (M. chelonae ATCC 35725; strain and temperature not stated) [% by weight] |
| --- | --- | --- | --- | --- | --- | --- |
| OCCN1CN(CCO)CN(CCO)C1 [Comparison 1, 2,2′,2″-(hexahydro-1,3,5-triazine-1,3,5-triyl)triethanol] | 0.3 | ≦0.075% | ≦0.075% | 0.3 | 0.3 | 0.3 |
| CCCCCCCCn1sccc1=O [Comparison 2, 2-octyl-3(2H)-isothiazol-3-one] | >0.3 | >0.3% | >0.3% | >0.3 | >0.3 | – |
